Source: PubChem BioAssay AID328 (DTP/NCI, 2004)
Several values for one entry are separate records, joined by “and”; a condition that tells them apart may be missing. Equal values may be shown once. Inconclusive results and toxic doses are left out.

System: BDF1 mice, P388 leukemia ip, median survival T/C
Assay: NCI In Vivo Anticancer Drug Screen. Data for tumor model P388 Leukemia (intraperitoneal) in B6D2F1 (BDF1) mice
Conditions: endpoint: median survival time, higher = longer survival
Procedure, shortened: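 Each value expresses how treatment altered survival: treated-mouse outcome over vehicle-mouse outcome, both groups bearing the transplanted tumour.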

[1] = dose: 6.25 mg/kg/injection, schedule: Q01DX009 (ip), vehicle: Klucel (hydroxypropylcellulose) (HPC)
[2] = dose: 12.5 mg/kg/injection, schedule: Q01DX009 (ip), vehicle: Klucel (hydroxypropylcellulose) (HPC)
[3] = dose: 100.0 mg/kg/injection, schedule: Q01DX009 (ip), vehicle: saline
[4] = dose: 200.0 mg/kg/injection, schedule: Q01DX009 (ip), vehicle: saline
[5] = dose: 100.0 mg/kg/injection, schedule: Q01DX001 (ip), vehicle: saline
[6] = dose: 200.0 mg/kg/injection, schedule: Q01DX001 (ip), vehicle: saline
[7] = dose: 400.0 mg/kg/injection, schedule: Q01DX001 (ip), vehicle: saline
[8] = dose: 100.0 mg/kg/injection, schedule: Q04DX003 (ip), vehicle: saline with Tween-80
[9] = dose: 200.0 mg/kg/injection, schedule: Q04DX003 (ip), vehicle: saline with Tween-80
[10] = dose: 400.0 mg/kg/injection, schedule: Q04DX003 (ip), vehicle: saline with Tween-80
[11] = dose: 25.0 mg/kg/injection, schedule: Q01DX009 (ip), vehicle: Klucel (hydroxypropylcellulose) (HPC)
[12] = dose: 100.0 mg/kg/injection, schedule: Q04DX003 (ip), vehicle: Klucel (hydroxypropylcellulose) (HPC)
[13] = dose: 25.0 mg/kg/injection, schedule: Q04DX003 (ip), vehicle: saline with Tween-80
[14] = dose: 50.0 mg/kg/injection, schedule: Q04DX003 (ip), vehicle: saline with Tween-80
[15] = dose: 400.0 mg/kg/injection, schedule: Q04DX003 (ip), vehicle: Klucel (hydroxypropylcellulose) (HPC)
[16] = dose: 50.0 mg/kg/injection, schedule: Q01DX009 (ip), vehicle: saline with Tween-80
[17] = dose: 100.0 mg/kg/injection, schedule: Q01DX009 (ip), vehicle: saline with Tween-80
[18] = dose: 200.0 mg/kg/injection, schedule: Q01DX009 (ip), vehicle: saline with Tween-80

BrCCC[P+](c1ccccc1)(c1ccccc1)c1ccccc1
T/C (dose: 0.94 mg/kg/injection, schedule: Q01DX010 (ip), vehicle: saline): 95 % of control
T/C (dose: 1.88 mg/kg/injection, schedule: Q01DX010 (ip), vehicle: saline): 104 % of control
T/C (dose: 1.9 mg/kg/injection, schedule: Q01DX009 (ip), vehicle: saline): 105 % of control
T/C (dose: 3.13 mg/kg/injection, schedule: Q04DX003 (ip), vehicle: saline): 92 % of control
T/C (dose: 3.75 mg/kg/injection, schedule: Q01DX009 (ip), vehicle: saline): 122 % of control
T/C (dose: 3.75 mg/kg/injection, schedule: Q01DX010 (ip), vehicle: saline): 114 % of control
T/C (dose: 6.25 mg/kg/injection, schedule: Q04DX003 (ip), vehicle: saline): 92 % of control
T/C (dose: 7.5 mg/kg/injection, schedule: Q01DX009 (ip), vehicle: saline): 111 % of control
T/C (dose: 7.5 mg/kg/injection, schedule: Q01DX010 (ip), vehicle: saline): 123 % of control
T/C (dose: 12.5 mg/kg/injection, schedule: Q01DX009 (ip), vehicle: saline with Tween-80): 150 % of control
T/C (dose: 12.5 mg/kg/injection, schedule: Q04DX003 (ip), vehicle: saline): 103 % of control
T/C (dose: 15.0 mg/kg/injection, schedule: Q01DX009 (ip), vehicle: saline): 194 % of control
T/C (dose: 15.0 mg/kg/injection, schedule: Q01DX010 (ip), vehicle: saline): 118 % of control

N#CCc1ccc([N+](=O)[O-])cc1
T/C [1]: 100 % of control
T/C [2]: 91 % of control
T/C (dose: 12.5 mg/kg/injection, schedule: Q04DX003 (ip), vehicle: Klucel (hydroxypropylcellulose) (HPC)): 104 % of control
T/C (dose: 25.0 mg/kg/injection, schedule: Q04DX003 (ip), vehicle: Klucel (hydroxypropylcellulose) (HPC)): 117 % of control

CCB1OCC2OB(CC)OC2C2OB(CC)OC2CO1 (stereo unspecified)
T/C (dose: 50.0 mg/kg/injection, schedule: Q01DX009 (ip), vehicle: saline): 100 % of control
T/C [3]: 97 % of control
T/C [4]: 93 % of control

O=C(NCCc1c[nH]c2ccccc12)c1cccnc1
T/C [5]: 104 % of control
T/C [6]: 100 % of control
T/C [7]: 95 % of control

CCCSCCCCSCCC
T/C [8]: 109 % of control
T/C [9]: 113 % of control
T/C [10]: 109 % of control

CC(=O)OC1=NC(C)c2c1cc(OC(C)=O)[nH]c2=O (stereo unspecified)
T/C [1]: 88 % of control
T/C [2]: 96 % of control
T/C [11]: 96 % of control
T/C [12]: 112 % of control
T/C (dose: 133.0 mg/kg/injection, schedule: Q04DX003 (ip), vehicle: Klucel (hydroxypropylcellulose) (HPC)): 121 % of control

CCCCN(CCC#N)CCCC
T/C [13]: 100 % of control
T/C [14]: 100 % of control
T/C [8]: 100 % of control

O=[N+]([O-])c1ccc(OCc2ccc(S(=O)(=O)F)c(Cl)c2)c(Cl)c1
T/C [5]: 115 % of control
T/C (dose: 100.0 mg/kg/injection, schedule: Q01DX009 (ip), vehicle: Klucel (hydroxypropylcellulose) (HPC)): 102 % of control
T/C [6]: 100 % of control
T/C (dose: 200.0 mg/kg/injection, schedule: Q01DX009 (ip), vehicle: Klucel (hydroxypropylcellulose) (HPC)): 100 % of control
T/C [7]: 103 % of control
T/C (dose: 400.0 mg/kg/injection, schedule: Q01DX009 (ip), vehicle: Klucel (hydroxypropylcellulose) (HPC)): 103 % of control

Cc1ccc(S(=O)(=O)F)c(Cl)c1
T/C (dose: 50.0 mg/kg/injection, schedule: Q01DX009 (ip), vehicle: other): 91 % of control
T/C [14]: 100 % of control
T/C (dose: 100.0 mg/kg/injection, schedule: Q01DX009 (ip), vehicle: other): 91 % of control
T/C [8]: 104 % of control
T/C (dose: 200.0 mg/kg/injection, schedule: Q01DX009 (ip), vehicle: other): 91 % of control
T/C [9]: 109 % of control

c1ccc2c(c1)CCc1cc3c(nc1-2)-c1ccccc1CC3
T/C [12]: 112 % of control
T/C [15]: 112 % of control

O=C(Nc1ccccc1)C1=C(Nc2ccccc2)CSC1
T/C (dose: 25.0 mg/kg/injection, schedule: Q01DX009 (ip), vehicle: saline with Tween-80): 100 % of control
T/C [13]: 99 % of control
T/C [16]: 91 % of control
T/C [14]: 99 % of control
T/C [17]: 94 % of control
T/C [8]: 96 % of control
T/C [18]: 102 % of control
T/C [9]: 105 % of control
T/C (dose: 400.0 mg/kg/injection, schedule: Q01DX009 (ip), vehicle: saline with Tween-80): 110 % of control
T/C [10]: 103 % of control

COC(=O)/C=C/CCOS(C)(=O)=O
T/C (dose: 100.0 mg/kg/injection, schedule: Q04DX002 (ip), vehicle: saline with Tween-80): 104 % of control
T/C (dose: 200.0 mg/kg/injection, schedule: Q04DX002 (ip), vehicle: saline with Tween-80): 124 % of control
T/C (dose: 400.0 mg/kg/injection, schedule: Q04DX002 (ip), vehicle: saline with Tween-80): 107 % of control

[Cu+2].[O-]c1ccc(Br)c2cccnc12.[O-]c1ccc(Br)c2cccnc12
T/C (dose: 12.5 mg/kg/injection, schedule: Q04DX003 (ip), vehicle: saline with Tween-80): 100 % of control
T/C [13]: 90 % of control
T/C [14]: 95 % of control
T/C (dose: 75.0 mg/kg/injection, schedule: Q04DX003 (ip), vehicle: saline with Tween-80): 90 % of control

COc1cccc(CCC(=O)O)c1
T/C (dose: 100.0 mg/kg/injection, schedule: Q04DX003 (ip), vehicle: gum acacia): 100 % of control
T/C (dose: 200.0 mg/kg/injection, schedule: Q04DX003 (ip), vehicle: gum acacia): 104 % of control
T/C (dose: 400.0 mg/kg/injection, schedule: Q04DX003 (ip), vehicle: gum acacia): 113 % of control

O=C(CCBr)N1CCN(C(=O)CCBr)CC1
T/C (dose: 10.0 mg/kg/injection, schedule: Q01DX010 (ip), vehicle: saline): 109 % of control
T/C (dose: 20.0 mg/kg/injection, schedule: Q01DX010 (ip), vehicle: saline): 122 % of control
T/C (dose: 40.0 mg/kg/injection, schedule: Q01DX010 (ip), vehicle: saline): 181 % of control

CCOc1ccc(/C=N\N=C\c2ccc(OCC)cc2)cc1
T/C [2]: 100 % of control
T/C [11]: 96 % of control
T/C [12]: 109 % of control
T/C (dose: 200.0 mg/kg/injection, schedule: Q04DX003 (ip), vehicle: Klucel (hydroxypropylcellulose) (HPC)): 90 % of control
T/C [15]: 90 % of control

COC(=O)C12OCC34C(CC5=C(C)C(=O)C(O)=CC5(C)C3C(O)C1O)OC(=O)C(OC(=O)c1ccccc1)C24 (stereo unspecified)
T/C (dose: 0.04 mg/kg/injection, schedule: Q01DX009 (ip), vehicle: saline + alcohol): 111 % of control
T/C (dose: 4.0 mg/kg/injection, schedule: Q01DX009 (ip), vehicle: saline + alcohol): 100 % of control

O=[N+]([O-])/C=C/c1ccc([N+](=O)[O-])cc1
T/C [14]: 118 % of control
T/C [8]: 118 % of control

Cc1cc(O)c(C(c2ccc(Cl)cc2)c2c(O)cc(C)[nH]c2=O)c(=O)[nH]1
T/C [16]: 108 % of control
T/C [17]: 108 % of control
T/C [18]: 105 % of control

C(=C/c1nnc2ncccn12)/c1ccccc1
T/C [16]: 97 % of control
T/C [17]: 94 % of control
T/C [18]: 110 % of control

OC1OCCOC1O (stereo unspecified)
T/C (dose: 17.8 mg/kg/injection, schedule: Q01DX009 (ip), vehicle: saline): 101 % of control
T/C (dose: 26.6 mg/kg/injection, schedule: Q01DX009 (ip), vehicle: saline): 112 % of control
T/C (dose: 40.0 mg/kg/injection, schedule: Q01DX009 (ip), vehicle: saline): 110 % of control
T/C (dose: 65.0 mg/kg/injection, schedule: Q01DX009 (ip), vehicle: saline): 121 % of control
T/C [3]: 166 % of control
T/C (dose: 150.0 mg/kg/injection, schedule: Q01DX009 (ip), vehicle: saline): 169 % of control
T/C (dose: 178.0 mg/kg/injection, schedule: Q01DX009 (ip), vehicle: saline): 166 % of control
T/C [4]: 166 % of control
T/C (dose: 266.0 mg/kg/injection, schedule: Q01DX009 (ip), vehicle: saline): 165 % of control
T/C (dose: 400.0 mg/kg/injection, schedule: Q01DX009 (ip), vehicle: saline): 157 % of control and 161 % of control and 168 % of control
